From US12649942B2, “Carotenoids for treating or preventing nausea” (priority 2019, dated 2026)

Columns and labels:
[1] = tested on: pgp-5p::gfp; test: pgp-5p::gfp induction in eft-3(q145);pgp-5p::gfp animals (translation deficit); type: in vivo, C. elegans; conditions: vs mock-treated
[2] = tested on: C. elegans; test: food aversion behavior; type: in vivo; conditions: for food aversion induced by the drug: in vivo
Method: In some embodiments, a food aversion assay as described herein is used. In some embodiments, a test sample is, or is derived from (e.g., a sample taken from) an in vivo model of a disorder as described herein. For example, a test compound is applied to a test sample comprising one or more C. elegans organisms, and one or more effects of the test compound is evaluated. For example, the ability of a test compound to counteract food aversion in the presence of a chemotherapeutic agent or other nausea-inducing stimulus can be tested. Alternatively, effects on a reporter gene, e.g., ABC transporter gene fusion pgp-5p::gfp, can be evaluated by detecting alterations in GFP fluorescence. As one of skill in the art will appreciate, other reporters could readily be used.
C. elegans food aversion behaviors are induced when animals are exposed to xenobiotics or essential gene inactivations (Melo and Ruvkun, 2012). […] While ˜40% of animals exposed to 25 μg/ml hygromycin display food aversion behavior, ˜15% of animals exposed to 25 μg/ml hygromycin and K. rhizophila carotenoid extract show aversion (FIG. 3E). Similar results were obtained with cisplatin: ˜50% of animals exposed to 1 mM cisplatin display aversion behavior while <20% of animals exposed to 1 mM cisplatin and K. rhizophila carotenoid extract display food aversion (FIG. 3F).

[3] = tested on: pgp-5p::gfp; test: pgp-5p::gfp induction in response to hygromycin, emetine or cisplatin; type: in vivo, C. elegans; conditions: animals fed E. coli OP50; hygromycin 10 μg/ml, emetine 6.25 μg/ml, cisplatin 1 mM
Method: Hygromycin diluted in M9 solution to the desired concentration was added onto E. coli OP50 bacteria containing NGM plates. […] For the xenobiotic experiments, synchronized L1-stage animals were dropped onto the drug containing plates and scored 4 days later.

[4] = animals on E. coli OP50 treated with the substance, screened after 50 hours at 20° C.
[5] = animals fed on E. coli expressing the carotenoid

CC(=O)N[C@@H](CS)C(=O)O [N-acetyl cysteine] was tested, and the “induction of pgp-5p::gfp” value [1, 4] was “not significantly different”.
For CC1=CCCC(C)(C)C1/C=C/C(C)=C/C=C/C(C)=C/C=C/C=C(C)/C=C/C=C(C)/C=C/C1=C(C)CCCC1(C)C (stereo not drawn) [alpha-carotene], the “induction of pgp-5p::gfp” value [1, 5] was “not significantly different”.
In the case of CC1=C(/C=C/C(C)=C/C=C/C(C)=C/C=C/C=C(C)/C=C/C=C(C)/C=C/C2=C(C)C(=O)[C@@H](O)CC2(C)C)C(C)(C)C[C@H](O)C1=O [astaxanthin], the “induction of pgp-5p::gfp” value [1, 4] is reported as “not significantly different”.
CC1=C(/C=C/C(C)=C/C=C/C(C)=C/C=C/C=C(C)/C=C/C=C(C)/C=C/C2=C(C)CCCC2(C)C)C(C)(C)CCC1 [beta-carotene] was tested, and the “induction of pgp-5p::gfp” value [1, 4] was “not significantly different”.
With N.N.[Cl][Pt][Cl] [cisplatin] the “animals that display aversion behavior” value ([2]; 1 mM cisplatin, no extract) was about 50%, the “food aversion induced by the drug” value [2] was “strong food aversion” and the “pgp-5p::gfp expression induced by the drug” value [3] was “induces pgp-5p::gfp expression”.
For CC(C)=CCC/C(C)=C/C=C/C(C)=C/C=C/C(C)=C/C=C/C=C(C)/C=C/C=C(C)/C=C/C1C(C)=CCCC1(C)C (stereo not shown) [delta-carotene], the “induction of pgp-5p::gfp” value [1, 5] was “not significantly different”.
In the case of CC[C@H]1CN2CCc3cc(OC)c(OC)cc3[C@@H]2C[C@@H]1C[C@H]1NCCc2cc(OC)c(OC)cc21 [emetine], the “food aversion induced by the drug” value [2] is reported as “strong food aversion”.
In the case of CC(C)=CCC/C(C)=C/C=C/C(C)=C/C=C/C(C)=C/C=C/C=C(C)/C=C/C=C(\C)CC/C=C(\C)CCC=C(C)C [neurosporene], the “induction of pgp-5p::gfp” value [1, 5] is reported as “not significantly different”.
In the case of Cc1c(C)c2c(c(C)c1O)CCC(C)(C(=O)O)O2 (stereo not shown) [trolox], the “induction of pgp-5p::gfp” value [1, 4] is reported as “not significantly different”.
In the case of CC(/C=C/C=C(C)/C=C/[C@@]12O[C@]1(C)C[C@@H](O)CC2(C)C)=C\C=C\C=C(C)\C=C\C=C(C)\C=C\[C@@]12O[C@]1(C)C[C@@H](O)CC2(C)C [violaxanthin], the “induction of pgp-5p::gfp” value [1, 5] is reported as “not significantly different”.
In the case of CC1=C(/C=C/C(C)=C/C=C/C(C)=C/C=C/C=C(C)/C=C/C=C(C)/C=C/C2=C(C)C[C@@H](O)CC2(C)C)C(C)(C)C[C@H](O)C1 [zeaxanthin], the “induction of pgp-5p::gfp” value [1, 5] is reported as “not significantly different”.
